#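 The concentration for 50% growth inhibition is given as GI50. TGI: concentration producing complete growth inhibition.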
# What was measured:
# Experiment in all cases: DTP human tumour cell line panel, 384-well format
# M14 melanoma = test system: M14 melanoma
# IGROV1 ovarian = test system: IGROV1 ovarian
# RXF 393 renal = test system: RXF 393 renal
# ACHN renal = test system: ACHN renal
# MDA-MB-231 breast = test system: MDA-MB-231 breast
# SF-539 CNS = test system: SF-539 CNS
# K-562 leukemia = test system: K-562 leukemia
# HOP-62 NSCLC = test system: HOP-62 NSCLC
# MALME-3M melanoma = test system: MALME-3M melanoma
# KM12 colon = test system: KM12 colon
# OVCAR-3 ovarian = test system: OVCAR-3 ovarian
# BT-549 breast = test system: BT-549 breast
# SF-295 CNS = test system: SF-295 CNS
# SF-268 CNS = test system: SF-268 CNS
# LOX IMVI melanoma = test system: LOX IMVI melanoma
# HCT-15 colon = test system: HCT-15 colon
# HL-60(TB) leukemia = test system: HL-60(TB) leukemia
# SK-MEL-28 melanoma = test system: SK-MEL-28 melanoma
# HT29 colon = test system: HT29 colon
# DU-145 prostate = test system: DU-145 prostate
# U251 glioblastoma = test system: U251 glioblastoma
# NCI/ADR-RES ovarian = test system: NCI/ADR-RES ovarian
# HOP-92 NSCLC = test system: HOP-92 NSCLC
# 786-0 renal = test system: 786-0 renal
# UO-31 renal = test system: UO-31 renal
# HCC-2998 colon = test system: HCC-2998 colon
# OVCAR-5 ovarian = test system: OVCAR-5 ovarian
# UACC-62 melanoma = test system: UACC-62 melanoma
# MOLT-4 leukemia = test system: MOLT-4 leukemia
# RPMI-8226 leukemia = test system: RPMI-8226 leukemia
# COLO 205 colon = test system: COLO 205 colon
# T-47D breast = test system: T-47D breast
# NCI-H226 lung = test system: NCI-H226 lung
# NCI-H322M lung = test system: NCI-H322M lung
# SN12C renal = test system: SN12C renal
# MCF7 breast = test system: MCF7 breast
# OVCAR-4 ovarian = test system: OVCAR-4 ovarian
# TK-10 renal = test system: TK-10 renal
# MDA-MB-435 melanoma = test system: MDA-MB-435 melanoma
# OVCAR-8 ovarian = test system: OVCAR-8 ovarian
# SNB-75 CNS = test system: SNB-75 CNS
# NCI-H460 NSCLC = test system: NCI-H460 NSCLC
# SK-OV-3 ovarian = test system: SK-OV-3 ovarian
# NCI-H522 lung = test system: NCI-H522 lung
# A549 NSCLC = test system: A549 NSCLC
# A498 renal = test system: A498 renal
# SW-620 colon = test system: SW-620 colon
# CAKI-1 renal = test system: CAKI-1 renal
# PC-3 prostate = test system: PC-3 prostate
# MDA-MB-468 breast = test system: MDA-MB-468 breast
# HS 578T breast = test system: HS 578T breast
# SR leukemia = test system: SR leukemia
# SK-MEL-5 melanoma = test system: SK-MEL-5 melanoma
# CCRF-CEM leukemia = test system: CCRF-CEM leukemia
# SNB-19 CNS = test system: SNB-19 CNS
# NCI-H23 lung = test system: NCI-H23 lung
smiles,measurement,setting,value
Cc1cc2c(F)c(Oc3ncnn4cc(OC[C@@H](C)OC(=O)[C@H](C)N)c(C)c34)ccc2[nH]1,GI50,M14 melanoma,4.9 µM
same,TGI,M14 melanoma,17.4 µM
same,GI50,IGROV1 ovarian,4.71 µM
same,GI50,RXF 393 renal,3.75 µM
same,TGI,RXF 393 renal,14.2 µM
same,GI50,ACHN renal,2.97 µM
same,GI50,MDA-MB-231 breast,1.82 µM
same,TGI,MDA-MB-231 breast,18.2 µM
same,GI50,SF-539 CNS,2.25 µM
same,TGI,SF-539 CNS,10.9 µM
same,GI50,K-562 leukemia,1.04 µM
same,TGI,K-562 leukemia,3.18 µM
same,GI50,HOP-62 NSCLC,6.64 µM
same,TGI,HOP-62 NSCLC,20.3 µM
same,GI50,MALME-3M melanoma,2.07 µM
same,TGI,MALME-3M melanoma,12.5 µM
same,GI50,KM12 colon,3.17 µM
same,TGI,KM12 colon,13.8 µM
same,GI50,OVCAR-3 ovarian,6.03 µM
same,GI50,BT-549 breast,3.65 µM
same,TGI,BT-549 breast,15.3 µM
same,GI50,SF-295 CNS,3.24 µM
same,TGI,SF-295 CNS,12.8 µM
same,GI50,SF-268 CNS,3.4 µM
same,TGI,SF-268 CNS,16.8 µM
same,GI50,LOX IMVI melanoma,1.43 µM
same,TGI,LOX IMVI melanoma,3.81 µM
same,GI50,HCT-15 colon,0.914 µM
same,TGI,HCT-15 colon,3.46 µM
same,GI50,HL-60(TB) leukemia,1.04 µM
same,TGI,HL-60(TB) leukemia,3.2 µM
same,GI50,SK-MEL-28 melanoma,3.29 µM
same,TGI,SK-MEL-28 melanoma,17.5 µM
same,GI50,HT29 colon,2.77 µM
same,TGI,HT29 colon,12 µM
same,GI50,DU-145 prostate,3.74 µM
same,GI50,U251 glioblastoma,3.67 µM
same,GI50,NCI/ADR-RES ovarian,3.52 µM
same,GI50,HOP-92 NSCLC,4.17 µM
same,TGI,HOP-92 NSCLC,17.3 µM
same,GI50,786-0 renal,3.54 µM
same,GI50,UO-31 renal,6.25 µM
same,GI50,HCC-2998 colon,3.59 µM
same,GI50,OVCAR-5 ovarian,8.29 µM
same,GI50,UACC-62 melanoma,3.13 µM
same,TGI,UACC-62 melanoma,17.5 µM
same,GI50,MOLT-4 leukemia,0.272 µM
same,TGI,MOLT-4 leukemia,0.612 µM
same,GI50,RPMI-8226 leukemia,0.467 µM
same,TGI,RPMI-8226 leukemia,1.94 µM
same,GI50,COLO 205 colon,0.847 µM
same,TGI,COLO 205 colon,12.7 µM
same,GI50,T-47D breast,3.34 µM
same,GI50,NCI-H226 lung,4.33 µM
same,TGI,NCI-H226 lung,18 µM
same,GI50,NCI-H322M lung,7.3 µM
same,TGI,NCI-H322M lung,19.7 µM
same,GI50,SN12C renal,4.53 µM
same,GI50,MCF7 breast,3.45 µM
same,TGI,MCF7 breast,16.7 µM
same,GI50,OVCAR-4 ovarian,7.98 µM
same,GI50,TK-10 renal,2.27 µM
same,GI50,MDA-MB-435 melanoma,7.77 µM
same,GI50,OVCAR-8 ovarian,4.41 µM
same,TGI,OVCAR-8 ovarian,17.2 µM
same,GI50,SNB-75 CNS,4.41 µM
same,TGI,SNB-75 CNS,17.1 µM
same,GI50,NCI-H460 NSCLC,0.643 µM
same,TGI,NCI-H460 NSCLC,4.37 µM
same,GI50,SK-OV-3 ovarian,5.13 µM
same,GI50,NCI-H522 lung,4.57 µM
same,GI50,A549 NSCLC,4.99 µM
same,TGI,A549 NSCLC,17.7 µM
same,GI50,A498 renal,5.04 µM
same,GI50,SW-620 colon,4.96 µM
same,TGI,SW-620 colon,17.7 µM
same,GI50,CAKI-1 renal,3.65 µM
same,TGI,CAKI-1 renal,16.4 µM
same,GI50,PC-3 prostate,3.17 µM
same,GI50,MDA-MB-468 breast,2.16 µM
same,TGI,MDA-MB-468 breast,5.55 µM
same,GI50,HS 578T breast,6.21 µM
same,TGI,HS 578T breast,17.7 µM
same,GI50,SR leukemia,0.0548 µM
same,TGI,SR leukemia,0.241 µM
same,GI50,SK-MEL-5 melanoma,0.984 µM
same,GI50,CCRF-CEM leukemia,1.84 µM
same,TGI,CCRF-CEM leukemia,6.14 µM
same,GI50,SNB-19 CNS,5.13 µM
same,GI50,NCI-H23 lung,10.1 µM
same,TGI,NCI-H23 lung,21.7 µM
